Results on ten molecules are retold here after US20260015350A1, “AZAQUINAZOLINE PAN-KRAS INHIBITORS” (Mirati Therapeutics, Inc., priority 2022, published 2026).

One assay addresses T1, KRas^WT (Homo sapiens, UniProt P01116).
T1 construct: Biotinylated KRas (corresponding to amino acids 1-169, produced at Accelegan Inc.); biotin (biotinylated); purchased Accelegan Inc
The assay is described as follows: KRas binding assay (TR-FRET tracer displacement), KRas WT. As to conditions: TR-FRET tracer displacement, KRas WT.

Another assay deals with T2, KRas^G12A (Homo sapiens, UniProt P01116, G12A).
T2 construct: Biotinylated KRas (corresponding to amino acids 1-169, produced at Accelegan Inc.); biotin (biotinylated); purchased Accelegan Inc
T2 sequence (P01116 1-169 isoform P01116-2 G12A): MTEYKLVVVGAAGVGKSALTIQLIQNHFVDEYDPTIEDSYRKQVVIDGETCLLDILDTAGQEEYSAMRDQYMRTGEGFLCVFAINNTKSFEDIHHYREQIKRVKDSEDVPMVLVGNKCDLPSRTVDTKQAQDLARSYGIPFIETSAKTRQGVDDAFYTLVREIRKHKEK
The assay is described as follows: KRas binding assay (TR-FRET tracer displacement), KRas G12A. The following applies: TR-FRET tracer displacement, KRas G12A. A general note: TR-FRET usually uses a lanthanide donor and a delayed reading to cut background.

A further assay has as its target T3, KRas^G12C (Homo sapiens, UniProt P01116, G12C).
T3 construct: Biotinylated KRas (corresponding to amino acids 1-169, produced at Accelegan Inc.); biotin (biotinylated); purchased Accelegan Inc
The assay is described as follows: KRas binding assay (TR-FRET tracer displacement), KRas G12C. The following applies: TR-FRET tracer displacement, KRas G12C.

Another assay addresses T4, KRas^G12D (Homo sapiens, UniProt P01116, G12D).
T4 construct: Biotinylated KRas (corresponding to amino acids 1-169, produced at Accelegan Inc.); biotin (biotinylated); purchased Accelegan Inc
The assay is described as follows: KRas binding assay (TR-FRET tracer displacement), KRas G12D.

A further assay deals with T5, KRas^G12R (Homo sapiens, UniProt P01116, G12R).
T5 construct: Biotinylated KRas (corresponding to amino acids 1-169, produced at Accelegan Inc.); biotin (biotinylated); purchased Accelegan Inc
T5 sequence (P01116 1-169 isoform P01116-2 G12R): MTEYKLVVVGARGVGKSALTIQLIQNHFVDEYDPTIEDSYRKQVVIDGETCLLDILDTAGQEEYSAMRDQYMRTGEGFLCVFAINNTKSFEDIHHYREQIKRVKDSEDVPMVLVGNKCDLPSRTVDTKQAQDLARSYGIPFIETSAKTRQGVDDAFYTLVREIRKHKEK
The assay is described as follows: KRas binding assay (TR-FRET tracer displacement), KRas G12R.

For another assay, the target named is T6, KRas^G12S (Homo sapiens, UniProt P01116, G12S).
T6 construct: Biotinylated KRas (corresponding to amino acids 1-169, produced at Accelegan Inc.); biotin (biotinylated); purchased Accelegan Inc
T6 sequence (P01116 1-169 isoform P01116-2 G12S): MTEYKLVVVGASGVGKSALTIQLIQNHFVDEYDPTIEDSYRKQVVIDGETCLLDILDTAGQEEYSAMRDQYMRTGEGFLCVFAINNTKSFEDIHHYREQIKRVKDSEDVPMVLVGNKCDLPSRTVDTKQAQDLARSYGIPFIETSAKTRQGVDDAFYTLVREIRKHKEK
The assay is described as follows: KRas binding assay (TR-FRET tracer displacement), KRas G12S. As to conditions: TR-FRET tracer displacement, KRas G12S.

Another assay concerns the target T7, KRas^G12V (Homo sapiens, UniProt P01116, G12V).
T7 construct: Biotinylated KRas (corresponding to amino acids 1-169, produced at Accelegan Inc.); biotin (biotinylated); purchased Accelegan Inc
The assay is described as follows: KRas binding assay (TR-FRET tracer displacement), KRas G12V.

The target of another assay is T8, KRas^G13D (Homo sapiens, UniProt P01116, G13D).
T8 construct: Biotinylated KRas (corresponding to amino acids 1-169, produced at Accelegan Inc.); biotin (biotinylated); purchased Accelegan Inc
T8 sequence (P01116 1-169 isoform P01116-2 G13D): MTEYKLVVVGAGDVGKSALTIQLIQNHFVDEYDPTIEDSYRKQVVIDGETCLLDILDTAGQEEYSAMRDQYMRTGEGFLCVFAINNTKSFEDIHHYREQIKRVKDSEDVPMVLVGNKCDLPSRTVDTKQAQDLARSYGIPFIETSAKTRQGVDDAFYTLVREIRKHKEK
The assay is described as follows: KRas binding assay (TR-FRET tracer displacement), KRas G13D. The following applies: TR-FRET tracer displacement, KRas G13D.

The target of a further assay is T9, KRas^Q61H (Homo sapiens, UniProt P01116, Q61H).
T9 construct: Biotinylated KRas (corresponding to amino acids 1-169, produced at Accelegan Inc.); biotin (biotinylated); purchased Accelegan Inc
T9 sequence (P01116 1-169 isoform P01116-2 Q61H): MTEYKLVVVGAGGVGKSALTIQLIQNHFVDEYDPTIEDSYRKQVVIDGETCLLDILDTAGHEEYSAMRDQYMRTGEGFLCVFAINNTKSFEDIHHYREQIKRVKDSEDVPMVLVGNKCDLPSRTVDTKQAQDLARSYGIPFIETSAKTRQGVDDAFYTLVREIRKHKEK
The assay is described as follows: KRas binding assay (TR-FRET tracer displacement), KRas Q61H. The following applies: TR-FRET tracer displacement, KRas Q61H.

In assay [1] the test system is KRas-mediated phosphorylation of ERK in AsPC-1 cells. The assay is described as follows: Inhibition of KRas-mediated phosphorylation of ERK (Cisbio HTRF pERK), AsPC-1 cells. In kind it is cell-based. The following applies: Homo sapiens, ASPC1, AsPC-1 cells; HTRF pERK. The procedure, abridged: (§1)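 Using 6,000 cells per well, compounds are applied for 3 hrs and cells then lysed at 4° C with shaking for 40 mins. Phospho-ERK is measured by HTRF after 2 hrs of lysate incubation with the d2/Cryptate antibody mixture.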

The subject of assay [2] is KRas-mediated phosphorylation of ERK in H727 cells. The assay is described as follows: Inhibition of KRas-mediated phosphorylation of ERK (Cisbio HTRF pERK), H727 cells. The following applies: Homo sapiens, NCI-H727, H727 cells; HTRF pERK. Format: cell-based. Summed up: as §1

T1 sequence (P01116 1-169 isoform P01116-2): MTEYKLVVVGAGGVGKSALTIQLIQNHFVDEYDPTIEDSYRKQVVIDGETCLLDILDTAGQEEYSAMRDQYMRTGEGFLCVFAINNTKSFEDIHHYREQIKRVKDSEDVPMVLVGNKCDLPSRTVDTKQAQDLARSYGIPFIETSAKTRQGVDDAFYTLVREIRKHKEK
T7 sequence (P01116 1-169 isoform P01116-2 G12V): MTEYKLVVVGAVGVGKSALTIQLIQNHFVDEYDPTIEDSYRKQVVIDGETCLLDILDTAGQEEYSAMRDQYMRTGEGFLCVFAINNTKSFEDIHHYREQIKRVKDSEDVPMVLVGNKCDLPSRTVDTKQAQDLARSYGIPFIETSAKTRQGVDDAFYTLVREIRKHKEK
T3 sequence (P01116 1-169 isoform P01116-2 G12C): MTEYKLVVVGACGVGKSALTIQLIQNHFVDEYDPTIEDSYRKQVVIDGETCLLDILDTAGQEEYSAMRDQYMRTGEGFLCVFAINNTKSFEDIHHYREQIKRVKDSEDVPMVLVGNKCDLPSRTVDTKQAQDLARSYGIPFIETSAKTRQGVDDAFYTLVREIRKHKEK
T4 sequence (P01116 1-169 isoform P01116-2 G12D): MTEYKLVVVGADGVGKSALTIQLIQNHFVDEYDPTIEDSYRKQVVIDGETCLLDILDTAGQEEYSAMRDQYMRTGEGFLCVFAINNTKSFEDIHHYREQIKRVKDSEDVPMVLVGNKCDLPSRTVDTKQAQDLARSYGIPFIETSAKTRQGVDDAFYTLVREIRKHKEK

As a reminder, the IC50 is the concentration at which inhibition is half-maximal. Read a low IC50 as greater potency. As to `O=C1NC(=O)C2(CCCN(c3nc(OCC45CCCN4CCC5)nc4c(F)c(-c5cc(O)cc(Cl)c5C5CC5)ncc34)C2)N1` (centres unmarked) [Example 739, 7-(7-(3-chloro-2-cyclopropyl-5-hydroxyphenyl)-8-fluoro-2-((hexahydro-1H-pyrrolizin-7a-yl)methoxy)pyrido[4,3-d]pyrimidin-4-yl)-1,3,7-triazaspiro[4.5]decane-2,4-dione], the IC50 on KRas^WT was under 2 nM; at KRas^G12A, 2 nM; on KRas^G12C it was under 2 nM; at KRas^G12D, 3 nM; at KRas^G12R, under 2 nM; on KRas^G12S it was under 2 nM. Moreover, the IC50 was under 2 nM at KRas^G12V; under 2 nM on KRas^G13D; under 2 nM on KRas^Q61H; over 10000 nM in assay [1]; over 10000 nM in [2].

On to `O=C1NCC2(CCCN(c3nc(OCC45CCCN4CCC5)nc4c(F)c(-c5cc(O)cc(Cl)c5C5CC5)ncc34)C2)N1` (centres unmarked) [Example 741, 7-(7-(3-chloro-2-cyclopropyl-5-hydroxyphenyl)-8-fluoro-2-((hexahydro-1H-pyrrolizin-7a-yl)methoxy)pyrido[4,3-d]pyrimidin-4-yl)-1,3,7-triazaspiro[4.5]decan-2-one], for which the concentration for half-maximal inhibition (IC50) at KRas^WT was under 2 nM; on KRas^G12A, 2 nM; at KRas^G12C, under 2 nM; on KRas^G12D it was under 2 nM; on KRas^G12R, under 2 nM; on KRas^G12S it was under 2 nM. For the same molecule, the IC50 on KRas^G12V is under 2 nM; at KRas^G13D, 3 nM; at KRas^Q61H, under 2 nM; in assay [1] it was over 10000 nM; in assay [2], over 10000 nM.

On to `Oc1cc(Cl)c(C2CC2)c(-c2ncc3c(N4CCC[C@]5(C4)C[C@@H](O)C5)nc(OCC45CCCN4CCC5)nc3c2F)c1` [Example 743, (2r,4s)-6-(7-(3-chloro-2-cyclopropyl-5-hydroxyphenyl)-8-fluoro-2-((tetrahydro-1H-pyrrolizin-7a(5H)-yl)methoxy)pyrido[4,3-d]pyrimidin-4-yl)-6-azaspiro[3.5]nonan-2-ol], for which the IC50 turned out to be 9 nM on KRas^WT; 8 nM on KRas^G12A; 6 nM on KRas^G12C; 8 nM on KRas^G12D; 20 nM on KRas^G12R; 8 nM on KRas^G12S. The IC50 at KRas^G12V is 3 nM; at KRas^G13D it was 9 nM; on KRas^Q61H, 7 nM; in [1], 3690 nM; in [2], 1100 nM.

For `O=C1NC(=O)C2(CCCN(c3nc(OCC45CCCN4CCC5)nc4c(F)c(-c5c6ccccc6cc6[nH]ncc56)ncc34)C2)N1` (centres unmarked) [Example 755, 7-(7-(1H-benzo[f]indazol-4-yl)-8-fluoro-2-((hexahydro-1H-pyrrolizin-7a-yl)methoxy)pyrido[4,3-d]pyrimidin-4-yl)-1,3,7-triazaspiro[4.5]decane-2,4-dione], the half-inhibitory concentration (IC50) at KRas^WT worked out at 13 nM; at KRas^G12A it was 14 nM; on KRas^G12C, 11 nM; at KRas^G12D, 16 nM; at KRas^G12R it was 9 nM; at KRas^G12S, 11 nM. Moreover, the half-maximal inhibitory concentration (IC50) at KRas^G12V is 11 nM; at KRas^G13D, 11 nM; on KRas^Q61H, 9 nM; in assay [1], over 10000 nM; in [2], over 10000 nM.

`O=C1NCC2(CCCN(c3nc(OCC45CCCN4CCC5)nc4c(F)c(-c5c6ccccc6cc6[nH]ncc56)ncc34)C2)N1` (centres unmarked) [Example 756, 7-(7-(1H-benzo[f]indazol-4-yl)-8-fluoro-2-((hexahydro-1H-pyrrolizin-7a-yl)methoxy)pyrido[4,3-d]pyrimidin-4-yl)-1,3,7-triazaspiro[4.5]decan-2-one]: the IC50 amounted to 13 nM on KRas^WT; 14 nM on KRas^G12A; 12 nM at KRas^G12C; 11 nM on KRas^G12D; 17 nM at KRas^G12R; 13 nM at KRas^G12S. The IC50 on KRas^G12V is 10 nM; on KRas^G13D, 13 nM; at KRas^Q61H it was 13 nM; in assay [1], over 10000 nM; in [2], over 10000 nM.

In the case of `O=C1NC(=O)C2(CCCN(c3nc(OC[C@@]45CCCN4C[C@H](F)C5)nc4c(F)c(-c5c6ccccc6cc6[nH]ncc56)ncc34)C2)N1` (stereo partly drawn) [Example 759, 7-(7-(1H-benzo[f]indazol-4-yl)-8-fluoro-2-(((2R,7aS)-2-fluorohexahydro-1H-pyrrolizin-7a-yl)methoxy)pyrido[4,3-d]pyrimidin-4-yl)-1,3,7-triazaspiro[4.5]decane-2,4-dione], the 50% inhibitory concentration (IC50) on KRas^WT came to 8 nM; on KRas^G12A it was 8 nM; at KRas^G12C, 7 nM; at KRas^G12D, 8 nM; on KRas^G12R, 6 nM; at KRas^G12S, 7 nM. The half-maximal inhibitory concentration (IC50) on KRas^G12V was 4 nM; at KRas^G13D, 7 nM; at KRas^Q61H it was 5 nM; in [1], over 10000 nM; in assay [2] it was over 10000 nM.

In the case of `O=C1NCC2(CCCN(c3nc(OC[C@@]45CCCN4C[C@H](F)C5)nc4c(F)c(-c5c6ccccc6cc6[nH]ncc56)ncc34)C2)N1` (stereo partly drawn) [Example 760, 7-(7-(1H-benzo[f]indazol-4-yl)-8-fluoro-2-(((2R,7aS)-2-fluorohexahydro-1H-pyrrolizin-7a-yl)methoxy)pyrido[4,3-d]pyrimidin-4-yl)-1,3,7-triazaspiro[4.5]decan-2-one], the 50% inhibitory concentration (IC50) came out at 88 nM on KRas^WT; 91 nM on KRas^G12A; 73 nM at KRas^G12C; 76 nM at KRas^G12D; 170 nM on KRas^G12R; 76 nM at KRas^G12S. The IC50 was 67 nM on KRas^G12V; 72 nM at KRas^G13D; 66 nM on KRas^Q61H; over 10000 nM in assay [1]; over 10000 nM in assay [2].

With `Oc1cc(-c2ncc3c(N4C[C@@H]5C[C@H](C4)[C@H](O)C5)nc(OC[C@@]45CCCN4C[C@H](F)C5)nc3c2F)c2ccccc2c1Cl` [Example 764, (1R,5R,6R)-3-(7-(4-chloro-3-hydroxynaphthalen-1-yl)-8-fluoro-2-(((2R,7aS)-2-fluorohexahydro-1H-pyrrolizin-7a-yl)methoxy)pyrido[4,3-d]pyrimidin-4-yl)-3-azabicyclo[3.2.1]octan-6-ol], the IC50 on KRas^WT was 3090 nM; at KRas^G12A, 2410 nM; at KRas^G12C it was 2390 nM; at KRas^G12D, 5530 nM; on KRas^G12R, 3120 nM; on KRas^G12S, 1690 nM. Further, the 50% inhibitory concentration (IC50) is 1660 nM on KRas^G12V; 2410 nM at KRas^G13D; 3930 nM at KRas^Q61H; over 10000 nM in assay [1]; over 10000 nM in assay [2].

Consider `Cc1c(Cl)cc2[nH]ncc2c1-c1ncc2c(N3CCC[C@]4(C3)NC(=O)NC4=O)nc(OCC34CCCN3CCC4)nc2c1F` [Example 766, (5R)-7-(7-(6-chloro-5-methyl-1H-indazol-4-yl)-8-fluoro-2-((hexahydro-1H-pyrrolizin-7a-yl)methoxy)pyrido[4,3-d]pyrimidin-4-yl)-1,3,7-triazaspiro[4.5]decane-2,4-dione], for which the half-inhibitory concentration (IC50) at KRas^WT worked out at 980 nM; at KRas^G12A it was 1160 nM; at KRas^G12C it was 927 nM; at KRas^G12D, 2200 nM; at KRas^G12R it was 1880 nM; at KRas^G12S, 824 nM. Moreover, the IC50 on KRas^G12V was 988 nM; at KRas^G13D, 1210 nM; at KRas^Q61H, 954 nM; in assay [1], over 10000 nM; in assay [2] it was over 10000 nM.

As to `CCc1cccc2cc3[nH]ncc3c(-c3ncc4c(N5CCCC6(CC(=O)N6)C5)nc(OC[C@@]56CCCN5C[C@H](F)C6)nc4c3F)c12` (stereo partly drawn) [Example 771, 6-(7-(5-ethyl-1H-benzo[f]indazol-4-yl)-8-fluoro-2-(((2R,7aS)-2-fluorohexahydro-1H-pyrrolizin-7a-yl)methoxy)pyrido[4,3-d]pyrimidin-4-yl)-1,6-diazaspiro[3.5]nonan-2-one], the IC50 was 12 nM at KRas^WT; 10 nM on KRas^G12A; 8 nM at KRas^G12C; 5 nM on KRas^G12D; 4 nM at KRas^G12R; 9 nM at KRas^G12S. Moreover, the IC50 at KRas^G12V stood at 4 nM; at KRas^G13D, 11 nM; on KRas^Q61H it was 7 nM; in assay [1] it was 1370 nM; in assay [2] it was 897 nM.
